The text below walks through data of ChEMBL document CHEMBL1821574, “Structure-activity relationships of 4-position diamine quinoline methanols as intermittent preventative treatment (IPT) against Plasmodium falciparum” (J Med Chem, 2011).

Values after ≈ are worked out from the molar mass of the structure shown.

Data set [1] has as its system Plasmodium falciparum. The data set is described as follows: Antimalarial activity against chloroquine-sensitive and mefloquine-resistant Plasmodium falciparum D6 assessed as inhibition of [3H]hypoxanthine incorporation by liquid scintillation spectrometry. The format is functional.
Data set [2] has as its system Plasmodium falciparum. The data set is described as follows: Antimalarial activity against chloroquine, mefloquine and pyrimethamine-resistant Plasmodium falciparum TM91C235 assessed as inhibition of [3H]hypoxanthine incorporation by liquid scintillation spectrometry. The format is functional.
The test system of data set [3] is Plasmodium falciparum. In words: Antimalarial activity against chloroquine, mefloquine and pyrimethamine-resistant Plasmodium falciparum TM90C2A assessed as inhibition of [3H]hypoxanthine incorporation by liquid scintillation spectrometry. It counts as functional.
Data set [4] has as its system Plasmodium falciparum. The data set is described as follows: Antimalarial activity against chloroquine-resistant and mefloquine-sensitive Plasmodium falciparum W2 assessed as inhibition of [3H]hypoxanthine incorporation by liquid scintillation spectrometry. It counts as functional.
A short description of data set [5]: Apparent permeability from apical to basolateral side of dog MDCK cells at 5 uM after 2 hrs by LC/MS/MS analysis. The format is ADME, cell-based, Canis lupus familiaris.
Data set [6] relates to Plasmodium falciparum. The data set is described as follows: Antimalarial activity against chloroquine-sensitive and mefloquine-resistant Plasmodium falciparum D6 by SYBR Green I-based fluorescence assay. The format is functional.
The test system of data set [7] is Plasmodium falciparum. In words: Antimalarial activity against chloroquine, mefloquine and pyrimethamine-resistant Plasmodium falciparum TM91C235 by SYBR Green I-based fluorescence assay. The format is functional.

With `OC(CNC[C@]12CC[C@H](C1)NC2)c1cc(C(F)(F)F)nc2c(C(F)(F)F)cccc12` (stereo partly specified), the concentration for an effect of 90% (IC90) in data set [1] was above 0.5 µg/mL; in data set [2], above 0.5 µg/mL; in data set [3], above 0.5 µg/mL; in data set [4], 0.57 µg/mL (≈ 1.32 µM).

With `OC(CNC[C@]12CCC[C@H]1CNC2)c1cc(C(F)(F)F)nc2c(C(F)(F)F)cccc12` (stereo partly specified), the IC90 in data set [1] is 0.159 µg/mL (≈ 0.355 µM); in data set [2] it was 0.419 µg/mL (≈ 0.936 µM); in data set [3] it was 0.429 µg/mL (≈ 0.959 µM); in data set [4], 0.852 µg/mL (≈ 1.9 µM).

As for `CC(CNC1CCC1)NCC(O)c1cc(C(F)(F)F)nc2c(C(F)(F)F)cccc12` (stereo unspecified), the Papp A→B at 2 h, 5 µM in data set [5] is 10.4 ×10⁻⁶ cm/s. Also, the concentration for an effect of 90% (IC90) in data set [6] worked out at 0.0014 µg/mL (≈ 0.00322 µM); in data set [7], 0.0093 µg/mL (≈ 0.0214 µM).

Take `CC(CN1CCCC1)NCC(O)c1cc(C(F)(F)F)nc2c(C(F)(F)F)cccc12` (stereo unspecified): the Papp A→B at 2 h, 5 µM in data set [5] came out at 33.1 ×10⁻⁶ cm/s. The concentration for an effect of 90% (IC90) in data set [1] was found to be 0.039 µg/mL (≈ 0.0896 µM); in data set [2], 0.079 µg/mL (≈ 0.181 µM); in data set [6], 0.008 µg/mL (≈ 0.0184 µM); in data set [3], 0.071 µg/mL (≈ 0.163 µM); in data set [4], 0.011 µg/mL (≈ 0.0253 µM); in data set [7], 0.055 µg/mL (≈ 0.126 µM).

As for `CN(C)CCNCC(O)c1cc(C(F)(F)F)nc2c(C(F)(F)F)cccc12` (stereo unspecified), the IC90 in data set [1], in data set [2], in data set [3] and in data set [4] was above 0.5 µg/mL throughout.

Take `CNCCN(C)CC(O)c1cc(C(F)(F)F)nc2c(C(F)(F)F)cccc12` (stereo unspecified): the Papp A→B at 2 h, 5 µM in data set [5] was determined as 5.66 ×10⁻⁶ cm/s. Also, the concentration for an effect of 90% (IC90) in data set [6] came to 0.432 µg/mL (≈ 1.09 µM); in data set [7], 0.755 µg/mL (≈ 1.91 µM).

Take `CC(C)N(CCN)CC(O)c1cc(C(F)(F)F)nc2c(C(F)(F)F)cccc12` (stereo unspecified): the IC90 came to 0.439 µg/mL (≈ 1.07 µM) in data set [6] and 0.627 µg/mL (≈ 1.53 µM) in data set [7].

On to `CC(CCN1CCOCC1)NCC(O)c1cc(C(F)(F)F)nc2c(C(F)(F)F)cccc12` (stereo unspecified), for which the IC90 was found to be 0.036 µg/mL (≈ 0.0773 µM) in data set [1], 0.055 µg/mL (≈ 0.118 µM) in data set [2], 0.095 µg/mL (≈ 0.204 µM) in data set [3] and 0.011 µg/mL (≈ 0.0236 µM) in data set [4].

As to `CN(C)CC(C)(C)NCC(O)c1cc(C(F)(F)F)nc2c(C(F)(F)F)cccc12` (stereo unspecified), the IC90 in data set [1] came out at 0.098 µg/mL (≈ 0.231 µM); in data set [2], 0.142 µg/mL (≈ 0.335 µM); in data set [3], 0.165 µg/mL (≈ 0.39 µM); in data set [4], 0.03 µg/mL (≈ 0.0709 µM).

Turning to `CC(CNC(C)(C)C)NCC(O)c1cc(C(F)(F)F)nc2c(C(F)(F)F)cccc12` (stereo unspecified), in data set [5], the apical-to-basolateral permeability (Papp A→B) at 2 h, 5 µM came to 13.1 ×10⁻⁶ cm/s. The results for the IC90 in data set [6] and in data set [7] were 0.015 µg/mL (≈ 0.0343 µM) and 0.041 µg/mL (≈ 0.0937 µM), respectively.

For `CC(CNC1CCCC1)NCC(O)c1cc(C(F)(F)F)nc2c(C(F)(F)F)cccc12` (stereo unspecified), the apparent permeability from apical to basolateral (Papp A→B) at 2 h, 5 µM in data set [5] was determined as 11.1 ×10⁻⁶ cm/s. For the same molecule, the 90% effect concentration (IC90) in data set [6] was determined as 0.03 µg/mL (≈ 0.0667 µM); in data set [7], 0.124 µg/mL (≈ 0.276 µM).

For the molecule `CC(C)(C)NCCNCC(O)c1cc(C(F)(F)F)nc2c(C(F)(F)F)cccc12` (stereo unspecified), in data set [5], the apparent permeability from apical to basolateral (Papp A→B) at 2 h, 5 µM stood at 11.2 ×10⁻⁶ cm/s. Besides, the IC90 in data set [6] stood at 0.243 µg/mL (≈ 0.574 µM); in data set [7] it was 0.504 µg/mL (≈ 1.19 µM).

For the molecule `CC(C)N(C)CCNCC(O)c1cc(C(F)(F)F)nc2c(C(F)(F)F)cccc12` (stereo unspecified), the apical-to-basolateral permeability (Papp A→B) at 2 h, 5 µM in data set [5] is 9.03 ×10⁻⁶ cm/s. The IC90 is 0.044 µg/mL (≈ 0.104 µM) in data set [6] and 0.079 µg/mL (≈ 0.187 µM) in data set [7].

Consider `OC(CNCCN1CCCC1)c1cc(C(F)(F)F)nc2c(C(F)(F)F)cccc12` (stereo unspecified), for which the IC90 in data set [1] is 0.311 µg/mL (≈ 0.738 µM); in data set [2] it was 0.556 µg/mL (≈ 1.32 µM); in data set [3], 0.835 µg/mL (≈ 1.98 µM); in data set [4] it was 0.109 µg/mL (≈ 0.259 µM).

For `OC(CNCCNC1CCCCC1)c1cc(C(F)(F)F)nc2c(C(F)(F)F)cccc12` (stereo unspecified), the apical-to-basolateral permeability (Papp A→B) at 2 h, 5 µM in data set [5] came to 2.7 ×10⁻⁶ cm/s. Also, the concentration for an effect of 90% (IC90) was found to be 0.122 µg/mL (≈ 0.271 µM) in data set [6] and 0.142 µg/mL (≈ 0.316 µM) in data set [7].

For the molecule `OC(CNCCNCc1ccncc1)c1cc(C(F)(F)F)nc2c(C(F)(F)F)cccc12` (stereo unspecified), the IC90 in data set [1] is 0.38 µg/mL (≈ 0.829 µM); in data set [2], above 0.5 µg/mL; in data set [6], 0.38 µg/mL (≈ 0.829 µM); in data set [3], above 0.5 µg/mL; in data set [4], 0.47 µg/mL (≈ 1.03 µM); in data set [7], above 0.5 µg/mL.

Consider `CCCCNCCNCC(O)c1cc(C(F)(F)F)nc2c(C(F)(F)F)cccc12` (stereo unspecified), for which the Papp A→B at 2 h, 5 µM in data set [5] turned out to be 5.9 ×10⁻⁶ cm/s. Further, the IC90 in data set [1] worked out at 0.155 µg/mL (≈ 0.366 µM); in data set [2], 0.283 µg/mL (≈ 0.668 µM); in data set [6], 0.128 µg/mL (≈ 0.302 µM); in data set [3] it was 0.319 µg/mL (≈ 0.753 µM); in data set [4] it was 0.069 µg/mL (≈ 0.163 µM); in data set [7], 0.236 µg/mL (≈ 0.557 µM).

As to `NCCN(Cc1ccccc1)CC(O)c1cc(C(F)(F)F)nc2c(C(F)(F)F)cccc12` (stereo unspecified), the Papp A→B at 2 h, 5 µM in data set [5] amounted to 9.06 ×10⁻⁶ cm/s. Besides, the IC90 in data set [6] is 0.329 µg/mL (≈ 0.719 µM); in data set [7], 0.289 µg/mL (≈ 0.632 µM).

Take `OC(CNCCN1CC2CCC1C2)c1cc(C(F)(F)F)nc2c(C(F)(F)F)cccc12` (stereo unspecified): in data set [5], the apparent permeability from apical to basolateral (Papp A→B) at 2 h, 5 µM stood at 14.2 ×10⁻⁶ cm/s. Further, the figures for the concentration for an effect of 90% (IC90) in data set [6] and in data set [7] were 0.844 µg/mL (≈ 1.89 µM) and 0.972 µg/mL (≈ 2.17 µM), respectively.

`OC(CNCCNC1CCC1)c1cc(C(F)(F)F)nc2c(C(F)(F)F)cccc12` (stereo unspecified): the apparent permeability from apical to basolateral (Papp A→B) at 2 h, 5 µM in data set [5] amounted to 8.54 ×10⁻⁶ cm/s. Also, the IC90 was 0.081 µg/mL (≈ 0.192 µM) in data set [6] and 0.138 µg/mL (≈ 0.327 µM) in data set [7].

With `CN(C)CCN(CC(O)c1cc(C(F)(F)F)nc2c(C(F)(F)F)cccc12)CC(O)c1cc(C(F)(F)F)nc2c(C(F)(F)F)cccc12` (stereo unspecified), the concentration for an effect of 90% (IC90) in data set [6] and in data set [7] was above 0.5 µg/mL each time.

`CC(CN1CC2CCC1C2)NCC(O)c1cc(C(F)(F)F)nc2c(C(F)(F)F)cccc12` (stereo unspecified): the Papp A→B at 2 h, 5 µM in data set [5] was 18.8 ×10⁻⁶ cm/s. In addition, the results for the 90% effect concentration (IC90) in data set [6] and in data set [7] were 0.029 µg/mL (≈ 0.0628 µM) and 0.051 µg/mL (≈ 0.111 µM), respectively.
